Measured values from patent US20230017266A1, “Cyclooxygenase-2 Inhibition for the Treatment of SAA-high Asthma” (THE USA, AS REPRESENTED BY THE SECRETARY, DEPT. OF HEALTH …, priority 2019, published 2023).

Tests used:
Type in all cases: cell-based, human
Details in all cases: diclofenac 1 mM, 24 h
CD14^+ monocytes [1] = test: PGE2 and TXB2 secreted by CD14+ monocytes cultured with HDL+SAA1
Excerpt: FIG. 4 illustrates that HDL enriched with serum amyloid A (HDL+SAA1) induces cytokine secretion from CD14+ monocytes via a P2X7R/NF-κB/COX-2-dependent pathway. a, Volcano plot showing differentially expressed mRNA transcripts from classical CD14+/CD16− monocytes from asthmatics (n=10) that were stimulated ex vivo with or without HDL enriched with recombinant human SAA1 (HDL+SAA1). Additional experiments utilized ex vivo cultures of CD14^+ monocytes isolated by flow cytometry from healthy subjects to characterize the HDL+SAA1-mediated P2X7R/NF-κB/COX-2-dependent pathway, except where indicated. b, PTGS2 mRNA levels were quantified by qRT-PCR in cells stimulated with normal HDL or HDL+SAA1 and presented as RQ (relative quantification). n=7 subjects, pairwise comparisons of all groups vs. media, repeated measures one-way ANOVA with Dunnett's multiple comparisons test. c, Western blot showing COX-1 and COX-2 protein in cells stimulated with normal HDL or HDL+SAA1. GAPDH is shown as a control for equivalency of protein loading. The Western blot shown is representative of 3 independent experiments using cells from different subjects. […]

CD14^+ monocytes [2] = test: HDL+SAA1-induced cytokine secretion by ex vivo CD14+ monocytes (ELISA)
Description: Isolation of Peripheral Blood Monocytes. Peripheral blood monocytes were isolated using a two-step process. Peripheral blood was diluted with PBS at a 1:1 ratio, slowly overlaid onto 30 ml of Lymphoprep™ (catalog #07811, StemCell Technologies, Vancouver Canada) in a 50 ml conical tube, and centrifuged at 400×g for 25 min without braking. The peripheral blood mononuclear cell (PBMC) layer was carefully transferred to another 50 ml conical tube, washed with PBS, followed by two washes with FACS buffer (0.5 mM EDTA, 1% BSA, and 1% mouse serum in PBS). Monocytes subsets were identified and sorted by flow cytometry using the following antibodies: PE mouse anti-human CD45 clone HI30 (catalog #555483), BV421 mouse anti-human CD14 clone MφP9 (catalog #563743), and FITC mouse anti-human CD16 clone B73.1 (catalog #561308), and a FACS ARIA Fusion sorter equipped with 355, 407, 488, 532 and 640 nm LASER lines using FACS DIVA 8.0 software (all from BD Biosciences, San Jose, Calif.). The gating strategy identified a population of debris-free, single, live, ^SSCmoderate/high, CD45^+ cells from which CD14^+/CD16^− (classical), CD14^+/CD16^+ (intermediate), CD14^dim/CD16^+ (non-classical), and CD14^+ (classical and intermediate) cells were sorted and utilized for experiments, as indicated (Supplemental FIG. 4).
HDL+SAA1 Stimulation of Peripheral Blood Monocytes Subsets. […] As previously described, normal HDL was isolated from plasma obtained from healthy subjects by sequential KBr differential gradient ultracentrifugation at 330,000 g and extensive dialysis with 50 mM HEPES, 50 mM NaCL, 5 mM MgCl2 and 2 mM CaCl2, pH 7.0, at 4° C. Normal HDL was complexed with recombinant human serum amyloid A-1 at a 2:1 ratio by mixing and incubated at RT overnight to generate HDL+SAA1, which was filtered using a 100-kDa exclusion filter (Amicon Ultra Centrifuge Filters, Millipore, Darmstadt, Germany) to remove any uncomplexed SAA1. Normal HDL was also complexed with the amount of lipopolysaccharide (catalog # L4391, E. coli 0111:B4, y-irradiated, MilliporeSigma, St. Louis, Mo.) present in recombinant human SAA1. Additionally, classical CD14^+ monocytes were treated with the P2X7R antagonist, A438079, the IKK inhibitor, BAY-11-7082, the IKKβ (IKK-2) inhibitor, TPCA-1, or the selective COX-2 inhibitor, celexocib, all from MilliporeSigma(St. Louis, Mo.). Cells were also treated with the FPR2 antagonist, WRW4, or diclofenac from Tocris (Minneapolis, Minn.). The amount of IL-1β, IL-6, TNF-α and IL-10 secreted into cell culture supernatants was quantified using human DuoSet ELISA kits (R&D Systems) and data were acquired using a SpectraMax M2 spectrophotometer (Molecular Devices, San Jose, Calif.). Western blotting, as previously described^43, was performed using antibodies directed against COX-1 (catalog #160110) and COX-2 (catalog #160112), both from Cayman Chemical (Ann Arbor, Mich.). Equivalency of protein loading was established using an antibody directed against GAPDH (catalog #MAB5718) from R&D Systems (Minneapolis, Minn.). Western blots images were captured using an iBright FL1000 Western Blot Imaging System (ThermoFisher Scientific, Waltham, Mass.) and quantified using NIH ImageJ software (imagej.nih.gov). […]

CD14^+ monocytes [3] = test: as above; remark: listed apart in the source

SMILES: O=C(O)Cc1ccccc1Nc1c(Cl)cccc1Cl [diclofenac, 2-[(2,6-dichlorophenyl)amino] benzeneacetic acid]
- HDL+SAA1-induced increase in prostaglandin E2 (CD14^+ monocytes [1]): suppressed
- HDL+SAA1-induced increase in thromboxane B2 (CD14^+ monocytes [1]): suppressed
- HDL+SAA1-mediated secretion of IL-6 (CD14^+ monocytes [2]): significantly inhibited
- HDL+SAA1-mediated secretion of IL-10 (CD14^+ monocytes [2]): significantly inhibited
- HDL+SAA1-mediated secretion of TNF-α (CD14^+ monocytes [2]): significantly inhibited
- HDL+SAA1-mediated secretion of IL-13 (CD14^+ monocytes [3]): significantly inhibited
